Article PMC8379256, “A xanthene derivative, DS20060511, attenuates glucose intolerance by inducing skeletal muscle-specific GLUT4 translocation in mice” (Communications Biology, 2021)
Where “and” joins values, the source holds several entries; their conditions need not be identical. Equal values may be shown once.

Experiments:
STZ-treated C57BL/6 mice = experiment: Insulin tolerance test (ITT) in STZ-treated C57BL/6 mice; format: in vivo, mouse; conditions: for Blood glucose: ITT
Procedure: Arrowheads indicate the characteristic ruffled structure of the polymerized actin and actin-associated surface GLUT4. d GLUT4 translocation activity of 30 μM DS20060511 or 100 nM insulin in the presence of the actin polymerization inhibitor, Latrunculin B, at the indicated concentrations. Values shown are means ± SEM, n = 3. **P < 0.01 vs. 0 nM Latrunculin B by one-way ANOVA followed by Dunnett’s test. e Concentration-dependent insulin-stimulated GLUT4 translocation in L6-GLUT4myc myotubes with or without 30 μM DS20060511 (n = 3). f Concentration-dependent DS20060511-stimulated 2-DG uptake with 100 nM insulin in isolated muscles from C57BL/6 mice (n = 3). Values shown are means ± SEM. ***P < 0.001 by one-way ANOVA followed by Tukey’s test. g Blood glucose levels during ITT in STZ-treated C57BL/6 mice (n = 6–7). Vehicle or indicated dose of DS20060511 was given orally at the same time as 0.1 U kg^−1 insulin injection intraperitoneally. Values shown are means ± SEM. *P < 0.05 vs. vehicle by one-way ANOVA followed by Dunnett’s test. c Scale bar in all panels, 5 μm. Uncropped blots for a and b can be found in Supplementary Fig. 6.
C57BL/6 mice deprived of access to food overnight received an intraperitoneal injection of STZ (125 mg kg^−1) and a repeat injection a week later. Thereafter, their blood glucose levels were monitored and insufficient mice (blood glucose levels of under 400 mg dL^−1 or blood glucose levels after overnight food deprivation of under 200 mg dL^−1) were excluded from the experiment. Blood glucose levels were measured using Glutest Every (Sanwa Kagaku Kenkyusho, Nagoya, Japan) in blood samples collected from the tail vein.
Mice received the indicated oral dose of DS20060511 or vehicle at the same time as the intraperitoneal injection of insulin (Humulin) at the indicated dose. Blood glucose levels were measured using Glutest Every in blood samples collected from the tail vein at the indicated timepoints.

[1] = system: mouse liver microsomal fraction; experiment: Metabolic stability in mouse liver microsomes; format: in vitro ADME; conditions: after 1 h incubation, 1 μM
Procedure: (§1) C57BL/6 mice that had been denied access to food overnight received the indicated oral dose of DS20060511, and blood samples were collected from the tail vein at the indicated timepoints. Plasma samples for quantitation of DS20060511 were prepared by centrifugation. Another group of mice received oral administration DS20060511 (30 mg kg^−1) and euthanized 75 min later. The soleus and gastrocnemius muscles, heart, and inguinal WAT were removed and homogenized in water (5 vol.) for quantitation of the drug concentrations. Plasma samples and tissue homogenates were analyzed by LC-MS/MS (Nexera MP System, SHIMADZU, Kyoto, Japan; API4000 System, SCIEX, Framingham, MA). The tissue concentrations of the compound were calculated by assuming the volume of 1 g of tissue is 1 mL. Evaluation of the metabolic stability of the compound to mouse and human cytochrome P450 (CYP) was conducted as follows. […] The results were expressed as the amount of compound remaining (expressed as a percentage), based on the ratio of the relative area to that in the control (without reaction).

C57BL/6 mice = experiment: Blood glucose after DS20060511 alone in fed or overnight food-deprived mice; format: in vivo, mouse; conditions: for Blood glucose: 30 mg/kg; for blood glucose levels (in words): 30 mg kg−1
Procedure: Fig. 2 Treatment with DS20060511 decreases the blood glucose levels via inducing GLUT4 translocation and increasing skeletal muscle glucose uptake. a, b Blood glucose levels after treatment with DS20060511 (30 mg kg^−1) in C57BL/6 mice that had received continued access to food (a) and mice that had been denied access to food overnight (b) (n = 8). Values shown are means ± SEM. **P < 0.01 vs. 0 min by one-way ANOVA followed by Dunnett’s test. c Blood glucose and plasma insulin levels during oral GTT in the C57BL/6 mice (n = 5–6). The mice received oral administration of vehicle or DS20060511 at the indicated dose, 15 min prior to glucose administration (1.5 g kg^−1). Values shown are means ± SEM. *P < 0.05, **P < 0.01 vs. vehicle by one-way ANOVA followed by Williams’ test. d [^3H]-2-DG uptake in the soleus muscle, gastrocnemius muscle (Gastro.), heart, and white adipose tissue (WAT) at 60 min during the intraperitoneal GTT in the C57BL/6 mice (n = 3). The mice received oral administration of vehicle or DS20060511 (30 mg kg^−1), 15 min prior to glucose administration (1 g kg^−1 glucose containing [^3H]-2-DG). […] Uncropped blots for e can be found in Supplementary Fig. 6.

[2] = system: human liver microsomal fraction; experiment: Metabolic stability in human liver microsomes; format: in vitro ADME; conditions: after 1 h incubation, 1 μM
Procedure: as §1

**Q.** Which results are given for COc1ccc2c(C)c(C(=O)O)ccc2c1C1C2=C(CC(C)(C)CC2=O)OC2=C1C(=O)CC(C)(C)C2 [DS20060511]?
**A.** Blood glucose (STZ-treated C57BL/6 mice; 10 mg/kg po with 0.1 U kg−1 insulin ip, 0 min, 10 mg/kg): 516 mg/dL and 430 mg/dL and 520 mg/dL and 493 mg/dL and 480 mg/dL and 526 mg/dL; Blood glucose (STZ-treated C57BL/6 mice; 10 mg/kg with insulin, 20 min, 10 mg/kg): 427 mg/dL and 401 mg/dL and 313 mg/dL and 397 mg/dL and 311 mg/dL and 432 mg/dL; Blood glucose (STZ-treated C57BL/6 mice; 30 mg/kg po with 0.1 U kg−1 insulin ip, 0 min, 30 mg/kg): 433 mg/dL and 472 mg/dL and 458 mg/dL and 427 mg/dL and 461 mg/dL and 483 mg/dL and 532 mg/dL; blood glucose levels, combined with insulin vs insulin alone (in words) (STZ-treated C57BL/6 mice; STZ-treated mice, Fig. 4g): reduced to a greater degree; compound remaining [1]: 89%; Blood glucose (C57BL/6 mice; Non-fasted, 0 min, individual mice): 125 mg/dL and 139 mg/dL and 194 mg/dL and 126 mg/dL and 129 mg/dL and 150 mg/dL and 154 mg/dL and 134 mg/dL; Blood glucose (C57BL/6 mice; Non-fasted, 30 min): 134 mg/dL and 128 mg/dL and 101 mg/dL and 95 mg/dL and 122 mg/dL and 111 mg/dL and 121 mg/dL and 96 mg/dL; Blood glucose (C57BL/6 mice; Overnight fasted, 0 min): 58 mg/dL and 52 mg/dL and 73 mg/dL and 46 mg/dL and 54 mg/dL and 55 mg/dL and 61 mg/dL; Blood glucose (C57BL/6 mice; Overnight fasted, 30 min): 52 mg/dL and 53 mg/dL and 57 mg/dL and 60 mg/dL and 42 mg/dL and 55 mg/dL and 49 mg/dL; Blood glucose (C57BL/6 mice; Overnight fasted, 60 min): 56 mg/dL and 57 mg/dL and 59 mg/dL and 48 mg/dL and 50 mg/dL and 45 mg/dL; blood glucose levels (in words) (C57BL/6 mice; mice denied access to food overnight, Fig. 2b): no effect on the blood glucose levels; blood glucose levels (in words) (C57BL/6 mice; mice with continued access to food, oral, Fig. 2a): modestly, but statistically significantly, reduced the blood glucose levels; compound remaining [2]: 79%
